The results in this text go back to ChEMBL document CHEMBL5441142, “Probing the Merck KGaA Open Global health library for novel starting points for anti-schistosomal drug discovery” (2024).

Active and inactive are the calls of the source. How the calls were made is not given here.

This assay relates to Schistosoma mansoni. In words: In vitro activity screen on S. mansoni schistosomula at 10 uM. Compound-induced effects were assessed by quantifying larva motility and phenotype using Roboworm. In kind it is functional, organism-based. Also noted: test concentration 10 uM, temperature 37 degree C, time incubation 72 h. To be noted: Puerto Rican.
As for `COCc1cc(-c2nc(-c3ccc(CN(C)CCC(=O)O)c(F)c3)no2)ccc1-c1ccccc1C`, the In vitro activity result is “inactive”.

With `COCc1cc(-c2nc(-c3cc(F)cc(CN(C)CC(=O)O)c3)no2)ccc1-c1ccccc1C`, the In vitro activity result was “inactive”.

Turning to `COc1ccc(CCNC(=O)c2cn3cc(-c4cc(OCCCO)ccc4OC)nc3s2)c(OCCCO)c1`, the In vitro activity result is “inactive”.

With `O=C(O)c1ccc(C(=O)Nc2[nH]c3ccccc3c2C(=O)NCc2ccc3c(c2)OCO3)cc1`, the In vitro activity entry is “inactive”.

For `COc1cc(NC(=O)c2cn(Cc3ccc(Cl)cc3)nn2)ccc1-n1cnc(C)c1`, the In vitro activity entry is “inactive”.

Turning to `CCN1CCC2(CC1)OC(=O)C(C)=C2C(=O)N1CCc2ccc(C(F)(F)F)cc2C1`, the In vitro activity entry was “inactive”.

Take `CCCCc1nc2ccn(Cc3ccccc3)c(=O)c2n1Cc1ccc(-c2ccccc2-c2nn[nH]n2)cc1`: the In vitro activity entry is “inactive”.

Regarding `O=C(C1CCCCC1)N1CC(=O)N2CCc3ccccc3[C@H]2C1`, the In vitro activity result is “inactive”.

`COc1cc(SC(C)C#N)ccc1-c1nc2ccncc2[nH]1` (stereo not given): the In vitro activity entry is “inactive”.

`CC1=C(C(=O)N2CCN(c3cccc(C(F)(F)F)c3)CC2)C2(CCN(CCc3ccccc3)CC2)OC1=O`: the In vitro activity entry was “inactive”.

In the case of `Cc1nc2c3c(nn2c(C)c1Cl)CN(C(=O)c1ccc(F)cc1OC1C[C@H]2COC[C@H](C1)N2C)C3` (stereo not given in full), the In vitro activity entry was “inactive”.

On to `Cc1cc2c(NCc3ccc4c(c3)OCO4)nc(-c3ccc(C(=O)O)cc3)nc2s1`, for which the In vitro activity entry is “inactive”.

As to `COc1cc(OC)cc(-c2cn3cc(C(=O)NCCc4ccc(OC)cc4OC)ccc3n2)c1`, the In vitro activity result was “inactive”.

As to `CCc1cc(C)c(C(=O)N=C(N)N)cc1S(C)(=O)=O`, the In vitro activity result is “inactive”.

Regarding `CC1SC(=O)NN=C1c1ccc2c(c1)CCCN2` (stereo not given), the In vitro activity result is “inactive”.

For `COCc1cc(-c2nc(-c3cccc(CN(C)CC(=O)O)c3)no2)ccc1N1CCCC1C` (stereo not given), the In vitro activity result is “inactive”.

For the molecule `COCc1cc(-c2nc(-c3ccc(CN(C)CC(=O)O)c(F)c3)no2)ccc1-c1ccccc1C`, the In vitro activity entry was “inactive”.

For `CCCN1CCC2(CC1)OC(=O)C(C)=C2C(=O)N1CCc2ncc(C(F)(F)F)cc2C1`, the In vitro activity result was “inactive”.

For `CC(/C=C/c1cc(/C=C/C(C)=C/C(=O)O)cc(-c2ccc(C(F)(F)F)cc2)c1)=C\C(=O)O`, the In vitro activity entry is “inactive”.

Consider `CCOc1cc(C2=NN(C(=O)c3ccc(NC(=O)c4ccc(OC)cc4)cc3)CCC2)ccc1OC`, for which the In vitro activity entry is “inactive”.

As to `Cc1cc2c(cc1C(=O)N=C(N)N)S(=O)(=O)C(C)(C)CO2`, the In vitro activity entry was “inactive”.

Take `Cn1cc(-c2cnc3[nH]cc(-c4cn(Cc5cccc(F)c5F)nn4)c3c2)cn1`: the In vitro activity entry was “inactive”.

For `CCCc1cc(C)c(C(=O)N=C(N)N)cc1S(C)(=O)=O`, the In vitro activity result was “inactive”.

For `Cc1cc(Nc2ccccn2)c(S(C)(=O)=O)cc1C(=O)N=C(N)N`, the In vitro activity entry was “inactive”.

As to `O=C(O)c1ccc(-c2nc(NCc3ccc4c(c3)OCO4)c3cc(Cl)sc3n2)cc1`, the In vitro activity result is “inactive”.

In the case of `COc1ccc(OCc2nn[nH]n2)cc1-c1cn2cc(C(=O)NCCc3c(OC)cccc3OC)sc2n1`, the In vitro activity result is “inactive”.

For the molecule `CCC(C)Oc1ccc(-c2nc(-c3cc(F)cc(CN(C)CC(=O)O)c3)no2)cc1COC` (stereo not given), the In vitro activity result is “inactive”.

Take `COc1ccc(CNc2nc(-c3ccc(C(=O)O)nc3)nc3sc4c(c23)CCCC4)cc1Cl`: the In vitro activity result is “inactive”.

Turning to `Cc1cc(C2=CCCC2)c(S(C)(=O)=O)cc1C(=O)N=C(N)N`, the In vitro activity result was “inactive”.

Regarding `CC1(C)C=C(n2ccccc2=O)c2cc(C#N)ccc2O1`, the In vitro activity result is “inactive”.

Regarding `COCc1cc(-c2nc(-c3cc(F)cc(CN(C)CC(=O)O)c3)no2)ccc1-c1cccc(F)c1C`, the In vitro activity entry is “inactive”.

Regarding `O=C(CCN1CCCCC1)c1ccc2[nH]c(=O)sc2c1`, the In vitro activity result was “inactive”.

As to `CC1=C(C(=O)N2CCc3ncc(C(F)(F)F)cc3C2)C2(CCN(CC3CCOC3)CC2)OC1=O` (stereo not given), the In vitro activity result was “inactive”.

For `CCCCc1nc2ccn(CC(=O)N(C)C)c(=O)c2n1Cc1ccc(-c2ccccc2-c2nnn[nH]2)cc1`, the In vitro activity result was “inactive”.

For `CCOc1cc(CCNC(=O)C[C@H]2S[C@@H](c3ccc(C#Cc4ccccc4)cc3)N(c3cccc(C(N)=O)c3)C2=O)ccc1O`, the In vitro activity entry is “inactive”.

For the molecule `COc1ccc(CNc2nc(CCCC(=O)O)nc3oc4c(c23)CCCC4)cc1Cl`, the In vitro activity entry was “inactive”.

`CC1=C(C(=O)N2CCc3c(F)cc(C(F)(F)F)cc3C2)C2(CCN(C3CCOCC3)CC2)OC1=O`: the In vitro activity entry is “inactive”.

Take `CCC(CC)N1CCC2(CC1)OC(=O)C(C)=C2C(=O)N1CCc2ncc(C(F)(F)F)cc2C1`: the In vitro activity entry is “inactive”.

Consider `CCCc1nn(C)c2c(NCc3ccc(OC)c(Cl)c3)nc(CCCCC(=O)NS(C)(=O)=O)nc12`, for which the In vitro activity result was “inactive”.

Turning to `CCNC1=N[C@@H]2[C@@H](O)[C@H](O)[C@@H](Cn3cc(COc4ccc(Cl)cc4)nn3)O[C@@H]2S1`, the In vitro activity entry is “inactive”.

On to `Cc1csc(N2CCN(C(C)c3ccc4c(c3)OCO4)CC2)n1` (stereo not given), for which the In vitro activity result is “inactive”.

Take `COc1cc(C(=O)N(C)C)ccc1-c1cc2nccc(-c3ccc4ccncc4c3)c2o1`: the In vitro activity result is “inactive”.

`CCc1cc(C(=O)NCc2ccc3c(c2)OCO3)c(NC(=O)c2ccc(C(=O)O)cc2)s1`: the In vitro activity entry is “inactive”.

`Cc1c(C(=O)N=C(N)N)cc(-n2cccc2)c(C)c1C`: the In vitro activity entry is “inactive”.

As for `CC1=C(C(=O)N2CCc3ncc(C(F)(F)F)cc3C2)C2(CCN(C3CCCCC3)CC2)OC1=O`, the In vitro activity result is “inactive”.

For `COc1cc(OC)c(CCNC(=O)c2cn3cc(-c4cc(OCC(=O)NCCO)ccc4OC)nc3s2)c(OC)c1`, the In vitro activity entry was “inactive”.

In the case of `CC1=C(C(=O)N2Cc3cc(C(F)(F)F)ccc3C3(CC3)C2)C2(CCN(C3CCOCC3)CC2)OC1=O`, the In vitro activity result is “inactive”.

Take `CCCCCCN(Cc1ccc(C#Cc2ccc(CCCC)cc2)cc1)c1ccc(F)c(C(=O)O)c1`: the In vitro activity result is “inactive”.

As for `CCc1cc2c(NCc3ccc(OC)c(Cl)c3)nc(-c3ccc(C(=O)O)cc3)nc2s1`, the In vitro activity result was “inactive”.

On to `COCc1cc(-c2nc(-c3cccc(CN(C)CC(=O)O)c3)no2)ccc1-c1cccc(F)c1C`, for which the In vitro activity result was “inactive”.

As for `C[C@H]1CCCCN1c1ccc(-c2nc(-c3cccc(CN(C)CC(=O)O)c3)no2)cc1C(F)(F)F`, the In vitro activity entry is “inactive”.

Turning to `COCc1cc(-c2nc(-c3cc(F)cc(CN(C)CC(=O)O)c3)no2)ccc1-c1ccccc1F`, the In vitro activity result was “inactive”.

Consider `COCc1cc(-c2nc(-c3cc(F)cc(CN(C)CCC(=O)O)c3)no2)ccc1-c1ccccc1C`, for which the In vitro activity entry was “inactive”.

Consider `CC1=C(C(=O)N2CCN(c3cccc(C(F)(F)F)c3)CC2)C2(CCN(C(C)C)CC2)OC1=O`, for which the In vitro activity entry is “inactive”.

Take `Cc1ccc(CNc2nc(N3CCC(C(=O)O)CC3)nc3sc4c(c23)CCCC4)cc1`: the In vitro activity result is “inactive”.
